What follows are compounds tested on MCH receptors (assay: MCH receptor activity class (method not given)). Conditions: class by percent of control at 10^-7 M or IC50.

Structure (SMILES) | class
CCCCCNC(=O)N[C@H]1CC[C@@H](Nc2nccc(N(C)C)n2)CC1 [compound 2223] | 3 (Class 3 The value of percent of control at 10^−7 M was more than 60% or the value of IC50 was more than 200 nM.)
CC(NC(=O)NC1CCC(Nc2nccc(N(C)C)n2)CC1)c1ccccc1 (centres unmarked) [compound 2227] | 3 (Class 3 The value of percent of control at 10^−7 M was more than 60% or the value of IC50 was more than 200 nM.)
CN(C)c1ccnc(N[C@H]2CC[C@@H](NC(=O)Nc3c(Cl)c(Cl)cc(Cl)c3Cl)CC2)n1 [compound 2228] | 3 (Class 3 The value of percent of control at 10^−7 M was more than 60% or the value of IC50 was more than 200 nM.)
CN(C)c1ccnc(N[C@H]2CC[C@@H](NC(=O)Nc3ccc(Br)cc3Br)CC2)n1 [compound 2229] | 3 (Class 3 The value of percent of control at 10^−7 M was more than 60% or the value of IC50 was more than 200 nM.)
CN(C)c1ccnc(N[C@H]2CC[C@@H](NC(=O)NCc3ccc(Cl)cc3Cl)CC2)n1 [compound 2230] | 3 (Class 3 The value of percent of control at 10^−7 M was more than 60% or the value of IC50 was more than 200 nM.)
COc1ccc(NC(=O)N[C@H]2CC[C@@H](Nc3nccc(N(C)C)n3)CC2)c(OC)c1 [compound 2231] | 3 (Class 3 The value of percent of control at 10^−7 M was more than 60% or the value of IC50 was more than 200 nM.)
CCOc1ccccc1NC(=O)N[C@H]1CC[C@@H](Nc2nccc(N(C)C)n2)CC1 [compound 2232] | 3 (Class 3 The value of percent of control at 10^−7 M was more than 60% or the value of IC50 was more than 200 nM.)
CN(C)c1ccnc(N[C@H]2CC[C@@H](NC(=O)NCc3ccccc3F)CC2)n1 [compound 2233] | 3 (Class 3 The value of percent of control at 10^−7 M was more than 60% or the value of IC50 was more than 200 nM.)
Cc1cc([N+](=O)[O-])ccc1NC(=O)N[C@H]1CC[C@@H](Nc2nccc(N(C)C)n2)CC1 [compound 2234] | 3 (Class 3 The value of percent of control at 10^−7 M was more than 60% or the value of IC50 was more than 200 nM.)
Cc1ccc([N+](=O)[O-])cc1NC(=O)N[C@H]1CC[C@@H](Nc2nccc(N(C)C)n2)CC1 [compound 2235] | 3 (Class 3 The value of percent of control at 10^−7 M was more than 60% or the value of IC50 was more than 200 nM.)
Cc1ccccc1CNC(=O)N[C@H]1CC[C@@H](Nc2nccc(N(C)C)n2)CC1 [compound 2236] | 3 (Class 3 The value of percent of control at 10^−7 M was more than 60% or the value of IC50 was more than 200 nM.)
CN(C)c1ccnc(N[C@H]2CC[C@@H](NC(=O)Nc3ccccc3[N+](=O)[O-])CC2)n1 [compound 2237] | 3 (Class 3 The value of percent of control at 10^−7 M was more than 60% or the value of IC50 was more than 200 nM.)
CN(C)c1ccnc(N[C@H]2CC[C@@H](NC(=O)Nc3ccc4c(c3)OCO4)CC2)n1 [compound 2238] | 3 (Class 3 The value of percent of control at 10^−7 M was more than 60% or the value of IC50 was more than 200 nM.)
COc1cc(NC(=O)N[C@H]2CC[C@@H](Nc3nccc(N(C)C)n3)CC2)cc(OC)c1OC [compound 2239, N-(cis-4-{[4-(dimethylamino)pyrimidin-2-yl]amino}cyclohexyl)-N′-(3,4,5-trimethoxyphenyl)urea] | 1 (Class 1: The value of percent of control at 10^−7 M was less than 40% or the value of IC50 was less than 50 nM.)
COc1ccc(NC(=O)N[C@H]2CC[C@@H](Nc3nccc(N(C)C)n3)CC2)cc1OC [compound 2240] | 3 (Class 3 The value of percent of control at 10^−7 M was more than 60% or the value of IC50 was more than 200 nM.)
COc1ccc(NC(=O)N[C@H]2CC[C@@H](Nc3nccc(N(C)C)n3)CC2)cc1Cl [compound 2241] | 3 (Class 3 The value of percent of control at 10^−7 M was more than 60% or the value of IC50 was more than 200 nM.)
CN(C)c1ccnc(N[C@H]2CC[C@@H](NC(=O)Nc3ccc(Br)cc3C(F)(F)F)CC2)n1 [compound 2242] | 3 (Class 3 The value of percent of control at 10^−7 M was more than 60% or the value of IC50 was more than 200 nM.)
CN(C)c1ccnc(N[C@H]2CC[C@@H](NC(=O)NCc3ccc(Br)cc3)CC2)n1 [compound 2243] | 3 (Class 3 The value of percent of control at 10^−7 M was more than 60% or the value of IC50 was more than 200 nM.)
Cc1cc(Cl)ccc1NC(=O)N[C@H]1CC[C@@H](Nc2nccc(N(C)C)n2)CC1 [compound 2244, N-(4-chloro-2-methylphenyl)-N′-(cis-4-{[4-(dimethylamino)pyrimidin-2-yl]amino}cyclohexyl)urea] | 2 (Class 2: The value of percent of control at 10^−7 M was from 40% to 60% or the value of IC′50 was from 50 nM to 200 nM.)
CN(C)c1ccnc(N[C@H]2CC[C@@H](NC(=O)NCc3ccc(F)cc3)CC2)n1 [compound 2245] | 3 (Class 3 The value of percent of control at 10^−7 M was more than 60% or the value of IC50 was more than 200 nM.)
COc1ccc(NC(=O)N[C@H]2CC[C@@H](Nc3nccc(N(C)C)n3)CC2)c(C)c1 [compound 2246] | 3 (Class 3 The value of percent of control at 10^−7 M was more than 60% or the value of IC50 was more than 200 nM.)

Structure (SMILES) | class
COc1cc(OC)c(NC(=O)N[C@H]2CC[C@@H](Nc3nccc(N(C)C)n3)CC2)cc1Cl [compound 2247] | 1 (Class 1: The value of percent of control at 10^−7 M was less than 40% or the value of IC50 was less than 50 nM.)
Cc1cc(Br)ccc1NC(=O)N[C@H]1CC[C@@H](Nc2nccc(N(C)C)n2)CC1 [compound 2249, N-(4-bromo-2-methylphenyl)-N′-(cis-4-{[4-(dimethylamino)pyrimidin-2-yl]amino}cyclohexyl)urea] | 2 (Class 2: The value of percent of control at 10^−7 M was from 40% to 60% or the value of IC′50 was from 50 nM to 200 nM.)
CN(C)c1ccnc(N[C@H]2CC[C@@H](NC(=O)Nc3ccc4c(c3)OCCO4)CC2)n1 [compound 2251] | 3 (Class 3 The value of percent of control at 10^−7 M was more than 60% or the value of IC50 was more than 200 nM.)
CC(C)c1cc(Br)c(NC(=O)N[C@H]2CC[C@@H](Nc3nccc(N(C)C)n3)CC2)c(Br)c1 [compound 2252] | 2 (Class 2: The value of percent of control at 10^−7 M was from 40% to 60% or the value of IC′50 was from 50 nM to 200 nM.)
COc1ccc(NC(=O)N[C@H]2CC[C@@H](Nc3nccc(N(C)C)n3)CC2)cc1OC1CCCC1 [compound 2253] | 2 (Class 2: The value of percent of control at 10^−7 M was from 40% to 60% or the value of IC′50 was from 50 nM to 200 nM.)
CN(C)c1ccnc(N[C@H]2CC[C@@H](NC(=O)Nc3ccc4c(c3)OCCCO4)CC2)n1 [compound 2254] | 3 (Class 3 The value of percent of control at 10^−7 M was more than 60% or the value of IC50 was more than 200 nM.)
CCCCc1ccc(NC(=O)N[C@H]2CC[C@@H](Nc3nccc(N(C)C)n3)CC2)c(C)c1 [compound 2255] | 3 (Class 3 The value of percent of control at 10^−7 M was more than 60% or the value of IC50 was more than 200 nM.)
Cc1onc(-c2ccccc2)c1NC(=O)N[C@H]1CC[C@@H](Nc2nccc(N(C)C)n2)CC1 [compound 2256] | 3 (Class 3 The value of percent of control at 10^−7 M was more than 60% or the value of IC50 was more than 200 nM.)
CN(C)c1ccnc(N[C@H]2CC[C@@H](NC(=S)Nc3ccc(Br)cc3)CC2)n1 [compound 2257] | 3 (Class 3 The value of percent of control at 10^−7 M was more than 60% or the value of IC50 was more than 200 nM.)
CN(C)c1ccnc(N[C@H]2CC[C@@H](NC(=S)Nc3ccc(C#N)cc3)CC2)n1 [compound 2258] | 2 (Class 2: The value of percent of control at 10^−7 M was from 40% to 60% or the value of IC′50 was from 50 nM to 200 nM.)
CN(C)c1ccnc(N[C@H]2CC[C@@H](NC(=S)Nc3ccc(Cl)cc3Cl)CC2)n1 [compound 2259] | 3 (Class 3 The value of percent of control at 10^−7 M was more than 60% or the value of IC50 was more than 200 nM.)
COc1ccc(NC(=S)N[C@H]2CC[C@@H](Nc3nccc(N(C)C)n3)CC2)c(OC)c1 [compound 2260] | 2 (Class 2: The value of percent of control at 10^−7 M was from 40% to 60% or the value of IC′50 was from 50 nM to 200 nM.)
Cc1cccc(C)c1NC(=S)N[C@H]1CC[C@@H](Nc2nccc(N(C)C)n2)CC1 [compound 2261] | 3 (Class 3 The value of percent of control at 10^−7 M was more than 60% or the value of IC50 was more than 200 nM.)
CCc1cccc(C(C)C)c1NC(=S)N[C@H]1CC[C@@H](Nc2nccc(N(C)C)n2)CC1 [compound 2262] | 3 (Class 3 The value of percent of control at 10^−7 M was more than 60% or the value of IC50 was more than 200 nM.)
COc1ccccc1NC(=S)N[C@H]1CC[C@@H](Nc2nccc(N(C)C)n2)CC1 [compound 2263] | 3 (Class 3 The value of percent of control at 10^−7 M was more than 60% or the value of IC50 was more than 200 nM.)
CN(C)c1ccnc(N[C@H]2CC[C@@H](NC(=S)Nc3cccc4ccccc34)CC2)n1 [compound 2264] | 3 (Class 3 The value of percent of control at 10^−7 M was more than 60% or the value of IC50 was more than 200 nM.)
COc1cc(NC(=S)N[C@H]2CC[C@@H](Nc3nccc(N(C)C)n3)CC2)cc(OC)c1OC [compound 2265, N-(cis-4-{[4-(dimethylamino)pyrimidin-2-yl]amino}cyclohexyl)-N′-(3,4,5-trimethoxyphenyl)thiourea] | 1 (Class 1: The value of percent of control at 10^−7 M was less than 40% or the value of IC50 was less than 50 nM.)
COc1ccc(NC(=S)N[C@H]2CC[C@@H](Nc3nccc(N(C)C)n3)CC2)cc1OC [compound 2266] | 2 (Class 2: The value of percent of control at 10^−7 M was from 40% to 60% or the value of IC′50 was from 50 nM to 200 nM.)
CN(C)c1ccnc(N[C@H]2CC[C@@H](NC(=S)Nc3ccc(N(C)C)c4ccccc34)CC2)n1 [compound 2267] | 2 (Class 2: The value of percent of control at 10^−7 M was from 40% to 60% or the value of IC′50 was from 50 nM to 200 nM.)
CCc1ccccc1NC(=S)N[C@H]1CC[C@@H](Nc2nccc(N(C)C)n2)CC1 [compound 2268] | 3 (Class 3 The value of percent of control at 10^−7 M was more than 60% or the value of IC50 was more than 200 nM.)

Source: patent US20050197350A1, “Novel quinoline, tetrahydroquinazoline, and pyrimidine derivatives and methods of treatment related to the use thereof” (TAISHO PHARMACEUTICAL CO., LTD., priority 2003, published 2005)
